Activity calls are given as the source filed them. No cut-off for these calls is given here.
Key:
[1] = target: T1, Proteinase-activated receptor 1 (Homo sapiens, UniProt P25116); assay: (§1) Displacement of [3H]haTRAP from human PAR1 receptor in platelet membrane; format: cell membranes
T1 sequence (P25116 whole entry): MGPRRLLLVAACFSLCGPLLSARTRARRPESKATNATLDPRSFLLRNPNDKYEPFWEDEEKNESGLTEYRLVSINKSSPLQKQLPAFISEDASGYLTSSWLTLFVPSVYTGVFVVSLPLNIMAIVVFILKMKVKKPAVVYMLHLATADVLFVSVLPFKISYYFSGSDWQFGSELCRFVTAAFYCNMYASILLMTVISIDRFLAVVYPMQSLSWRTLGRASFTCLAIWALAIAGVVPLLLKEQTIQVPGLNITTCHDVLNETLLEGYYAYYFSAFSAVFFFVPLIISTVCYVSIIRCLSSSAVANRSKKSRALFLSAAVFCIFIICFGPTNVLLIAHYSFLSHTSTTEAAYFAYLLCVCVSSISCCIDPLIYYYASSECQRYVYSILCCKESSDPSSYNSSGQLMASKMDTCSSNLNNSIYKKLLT

[2] = target: T2, Proteinase-activated receptor 1 (Homo sapiens) (UniProt P25116); assay: Displacement of [3H]haTRAP from human PAR1 receptor in platelet membrane at 1 uM; format: cell membranes
T2 sequence (whole entry): T1 sequence (P25116 whole entry)

[3] = Cmax in rat; format: ADME, organism-based; details: in vivo
[4] = AUC (0 to 4 hrs) in rat; format: ADME, organism-based; set-up: time < 4 hr; concentration or dose not given beside the values; details: plasma
Cynomolgus monkey [5] = assay: Ex vivo inhibition of platelet aggregation in cynomolgus monkey at 3 mg/kg up to 4 hrs; format: functional, organism-based; set-up: dose 3 mg/kg; details: Macaca fascicularis
Cynomolgus monkey [6] = assay: Ex vivo inhibition of platelet aggregation in cynomolgus monkey at 3 mg/kg after 6 hrs; format: functional; details: Macaca fascicularis
Cannabinoid receptor 2 = Cannabinoid receptor 2 (Homo sapiens, UniProt P34972); assay: Binding affinity to cannabinoid CB2 receptor
Cannabinoid receptor 2, sequence (P34972 whole entry): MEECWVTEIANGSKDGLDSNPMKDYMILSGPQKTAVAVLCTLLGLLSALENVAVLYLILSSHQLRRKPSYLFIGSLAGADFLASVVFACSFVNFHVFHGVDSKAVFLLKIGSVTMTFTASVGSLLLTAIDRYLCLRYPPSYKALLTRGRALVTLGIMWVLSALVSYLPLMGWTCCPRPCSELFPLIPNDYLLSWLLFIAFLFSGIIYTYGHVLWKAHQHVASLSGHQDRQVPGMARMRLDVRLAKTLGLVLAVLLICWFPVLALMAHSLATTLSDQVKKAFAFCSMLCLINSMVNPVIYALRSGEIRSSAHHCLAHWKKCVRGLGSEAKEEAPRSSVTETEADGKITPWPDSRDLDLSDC

[7] = target: T2, Proteinase-activated receptor 1 (Homo sapiens); assay: as §1; format: cell membranes

## C[C@H]1OC(=O)[C@@H]2C[C@@H]3CCCC[C@H]3[C@H](/C=C/c3ccc(-c4cncn4C)cn3)[C@H]12
[1]
  IC50: 145 nM

## C[C@H]1OC(=O)[C@@H]2C[C@@H]3CCCC[C@H]3[C@H](/C=C/c3ccc(-c4ccco4)cn3)[C@H]12 (racemic)
[1]
  IC50: 12 nM

## Cc1nc(/C=C/[C@@H]2[C@@H]3[C@@H](C)OC(=O)[C@@H]3C=C3CCCC[C@H]32)ccc1-c1ccccc1
[1]
  IC50: 130 nM

## C[C@H]1OC(=O)[C@@H]2C=C3CCCC[C@H]3[C@H](/C=C/c3ccccn3)[C@H]12
[1]
  IC50: 3600 nM
[2]
  inhibition: 16%

## Cc1cccc(/C=C/[C@@H]2[C@@H]3[C@@H](C)OC(=O)[C@@H]3C=C3CCCC[C@H]32)n1
[1]
  IC50: 350 nM

## C[C@H]1OC(=O)[C@@H]2C[C@@H]3CCCC[C@H]3[C@H](/C=C/c3ccc(-c4cnccn4)cn3)[C@H]12
[1]
  IC50: 88 nM

## C[C@H]1OC(=O)[C@@H]2C[C@@H]3CCCC[C@H]3[C@H](/C=C/c3ccc(-c4ncc[nH]4)cn3)[C@H]12
[1]
  IC50: 1320 nM

## C[C@H]1OC(=O)[C@@H]2C[C@@H]3CCCC[C@H]3[C@H](/C=C/c3ccc(N4CCN(C)CC4)cn3)[C@H]12
[2]
  inhibition: 12%

## C[C@H]1OC(=O)[C@@H]2C[C@@H]3CCCC[C@H]3[C@H](/C=C/c3ccc(-c4ccccc4)cn3)[C@H]12
[3]
  Cmax: 223 ng/mL
[4]
  AUC(0-t) at 4 h: 451 ng·h/mL

## C[C@H]1OC(=O)[C@@H]2C=C3CCCC[C@H]3[C@H](/C=C/c3cccnc3)[C@H]12
[2]
  inhibition: 11%

## C[C@H]1OC(=O)[C@@H]2C=C3CCCC[C@H]3[C@H](/C=C/c3cncnc3)[C@H]12
[2]
  inhibition: 5%

## C[C@H]1OC(=O)[C@@H]2C=C3CCCC[C@H]3[C@H](/C=C/c3ccc(-c4ccccc4)cn3)[C@H]12
[1]
  IC50: 43 nM

## C[C@H]1OC(=O)[C@@H]2C[C@@H]3CCCC[C@H]3[C@H](/C=C/c3ccc(-c4cccnc4)cn3)[C@H]12
Cynomolgus monkey [5]
  Activity: Active
Cynomolgus monkey [6]
  inhibition in vivo at 3 mg/kg: 70%
[1]
  IC50: 22 nM
[3]
  Cmax: 1820 ng/mL
Cannabinoid receptor 2
  Ki: 13000 nM
[4]
  AUC(0-t) at 4 h: 4230 ng·h/mL

## C[C@H]1OC(=O)[C@@H]2C=C3CCCC[C@H]3[C@H](/C=C/c3cnccn3)[C@H]12
[2]
  inhibition: 1%

## C[C@H]1OC(=O)[C@@H]2C[C@@H]3CCCC[C@H]3[C@H](/C=C/c3ccc(-c4ccsc4)cn3)[C@H]12 (racemic)
[1]
  IC50: 11 nM
[3]
  Cmax: 461 ng/mL
[4]
  AUC(0-t) at 4 h: 434 ng·h/mL

## C[C@H]1OC(=O)[C@@H]2C[C@@H]3CCCC[C@H]3[C@H](/C=C/c3ccc(-c4nccs4)cn3)[C@H]12
[1]
  IC50: 47 nM

## C[C@H]1OC(=O)[C@@H]2C[C@@H]3CCCC[C@H]3[C@H](/C=C/c3ccc(C4CCCC4)cn3)[C@H]12
[1]
  IC50: 115 nM

## C[C@H]1OC(=O)[C@@H]2C[C@@H]3CCCC[C@H]3[C@H](/C=C/c3ccc(-c4ccncc4)cn3)[C@H]12
[1]
  IC50: 2140 nM

## C[C@H]1OC(=O)[C@@H]2C[C@@H]3CCCC[C@H]3[C@H](/C=C/c3ccc(-c4cccs4)cn3)[C@H]12 (racemic)
[1]
  IC50: 16 nM
[3]
  Cmax: 109 ng/mL
[4]
  AUC(0-t) at 4 h: 160 ng·h/mL

## C[C@H]1OC(=O)[C@@H]2C=C3CCCC[C@H]3[C@H](/C=C/c3cnc4ccccc4c3)[C@H]12
[2]
  inhibition: 45%

## CCc1ccc(/C=C/[C@H]2[C@@H]3CCCC[C@H]3C[C@H]3C(=O)O[C@H](C)[C@@H]23)nc1
[1]
  IC50: 263 nM

## C[C@H]1OC(=O)[C@@H]2C=C3CCCC[C@H]3[C@H](/C=C/c3nc4ccccc4o3)[C@H]12
[2]
  inhibition: 38%

## C[C@H]1OC(=O)[C@@H]2C=C3CCCC[C@H]3[C@H](/C=C/c3ccccc3)[C@H]12
[7]
  Activity: inactive
[2]
  inhibition: 2%

## C[C@H]1OC(=O)[C@@H]2C[C@@H]3CCCC[C@H]3[C@H](/C=C/c3ccc(-c4ccc(Cl)s4)cn3)[C@H]12 (racemic)
[1]
  IC50: 36 nM
[3]
  Cmax: 343 ng/mL
[4]
  AUC(0-t) at 4 h: 1060 ng·h/mL

## C[C@H]1OC(=O)[C@@H]2C[C@@H]3CCCC[C@H]3[C@H](/C=C/c3ccc(-c4ccc[n+]([O-])c4)cn3)[C@H]12
[1]
  IC50: 207 nM

## CCc1nc(/C=C/[C@@H]2[C@@H]3[C@@H](C)OC(=O)[C@@H]3C=C3CCCC[C@H]32)ccc1-c1ccccc1
[1]
  IC50: 285 nM

## C[C@H]1OC(=O)[C@@H]2C[C@@H]3CCCC[C@H]3[C@H](/C=C/c3ccc(N4CCN(c5ccccc5)CC4)cn3)[C@H]12
[1]
  IC50: 3300 nM

## C[C@H]1OC(=O)[C@@H]2C[C@@H]3CCCC[C@H]3[C@H](/C=C/c3ccc(N4CCOCC4)cn3)[C@H]12
[1]
  IC50: 440 nM

## Cc1cccc(/C=C/[C@@H]2[C@@H]3[C@@H](C)OC(=O)[C@@H]3C=C3CCCC[C@H]32)c1
[7]
  Activity: inactive

## C[C@H]1OC(=O)[C@@H]2C[C@@H]3CCCC[C@H]3[C@H](/C=C/c3ccc(-c4cccc(C(F)(F)F)c4)cn3)[C@H]12
Cynomolgus monkey [6]
  Activity: Active
[3]
  Cmax: 1130 ng/mL
[4]
  AUC(0-t) at 4 h: 3010 ng·h/mL

## C[C@H]1OC(=O)[C@@H]2C[C@@H]3CCCC[C@H]3[C@H](/C=C/c3ccc(N4CCCC4)cn3)[C@H]12
[1]
  IC50: 29 nM
Cannabinoid receptor 2
  Ki: 487 nM

## C[C@H]1OC(=O)[C@@H]2C=C3CCCC[C@H]3[C@H](/C=C/c3nccs3)[C@H]12
[2]
  inhibition: 14%

## C[C@H]1OC(=O)[C@@H]2C[C@@H]3CCCC[C@H]3[C@H](/C=C/c3ccc(-c4ccccn4)cn3)[C@H]12
[1]
  IC50: 22 nM
[3]
  Cmax: 251 ng/mL
[4]
  AUC(0-t) at 4 h: 509 ng·h/mL
